Experimental data published in ChEMBL document CHEMBL1141476, “Novel echinocandin antifungals. Part 1: novel side-chain analogs of the natural product FR901379” (Bioorg Med Chem Lett, 2008).
Converted amounts (≈) assume the structure as drawn. Starred links: 1 amine or outer side, 2 acyl side, 3 side chain; linkers in the order of their positions; H or OH if unused. Positions of bridges follow the written chain, without caps; N, C: chain ends. Non-standard residues stand in square brackets, D forms with d. Residues, ends and D or L forms follow the SMILES beside them. *: point of attachment. hTyr(3S-OH,4S-OH,3'-OSO3H) = N[C@H](C(=O)O)[C@H](O)[C@@H](O)c1ccc(O)c(OS(=O)(=O)O)c1; Orn(4R-OH,5R-OH) = O=C([C@H](C[C@@H](O)[C@@H](O)N[*:3])N[*:1])[*:2]; Orn(4R-OH,5S-OH) = O=C([C@H](C[C@@H](O)[C@H](O)N[*:3])N[*:1])[*:2]; Pro(3S-OH,4S-Me) = C[C@H]1CN[C@H](C(=O)O)[C@H]1O; X1 = CCCCOc1ccc(-c2ccc(-c3ccc(C(=O)*)cc3)cc2)cc1; Benzoyl(4-octyloxy) = CCCCCCCCOc1ccc(C(=O)*)cc1; Gln(3R-OH) = NC(=O)C[C@@H](O)[C@H](N)C(=O)O; Hyp = O=C(O)[C@@H]1C[C@@H](O)CN1

Experiments:
Candida albicans [1] = assay: Antifungal activity against Candida albicans FP633; assay type: functional
Aspergillus fumigatus [2] = assay: Antifungal activity against Aspergillus fumigatus FP1305; assay type: functional, organism-based
[3] = Effect on hemolysis in red blood cells; assay type: ADME, cell-based, Erythrocyte
Candida albicans [4] = assay: Antifungal activity against Candida albicans FP633 in in vivo model; assay type: functional
Aspergillus fumigatus [5] = assay: Antifungal activity against Aspergillus fumigatus 8004 in in vivo model; assay type: functional

CCCCCCCOc1ccc(-c2ccc(C(=O)N[C@@H]3C[C@@H](O)[C@@H](O)NC(=O)[C@@H]4[C@@H](O)[C@@H](C)CN4C(=O)[C@H]([C@H](O)CC(N)=O)NC(=O)[C@H]([C@H](O)[C@@H](O)c4ccc(O)c(OS(=O)(=O)[O-])c4)NC(=O)[C@@H]4C[C@@H](O)CN4C(=O)C([C@@H](C)O)NC3=O)cc2)cc1.[Na+] (stereo not given in full)
MIC (Candida albicans [1]): 0.1 µg/mL | IC50 (Aspergillus fumigatus [2]): 0.002 µg/mL | LC30 [3]: 910 µg/mL

CCCCOc1ccc(-c2ccc(-c3ccc(C(=O)N[C@H]4C[C@@H](O)[C@@H](O)NC(=O)[C@@H]5[C@@H](O)[C@@H](C)CN5C(=O)[C@H]([C@H](O)CC(N)=O)NC(=O)[C@H]([C@H](O)[C@@H](O)c5ccc(O)c(OS(=O)(=O)O)c5)NC(=O)[C@@H]5C[C@@H](O)CN5C(=O)[C@H]([C@@H](C)O)NC4=O)cc3)cc2)cc1 (X1-[Orn(4R-OH,5R-OH)]T[Hyp][hTyr(3S-OH,4S-OH,3'-OSO3H)][Gln(3R-OH)][Pro(3S-OH,4S-Me)]; lactam 1-C) [listing 1 of 2 here]
MIC (Candida albicans [1]): 0.0125 µg/mL (≈ 9.88 nM)

CCCCOc1ccc(-c2ccc(-c3ccc(C(=O)N[C@H]4C[C@@H](O)[C@@H](O)NC(=O)[C@@H]5[C@@H](O)[C@@H](C)CN5C(=O)[C@H]([C@H](O)CC(N)=O)NC(=O)[C@H]([C@H](O)[C@@H](O)c5ccc(O)c(OS(=O)(=O)O)c5)NC(=O)[C@@H]5C[C@@H](O)CN5C(=O)[C@H]([C@@H](C)O)NC4=O)cc3)cc2)cc1 (X1-[Orn(4R-OH,5R-OH)]T[Hyp][hTyr(3S-OH,4S-OH,3'-OSO3H)][Gln(3R-OH)][Pro(3S-OH,4S-Me)]; lactam 1-C) [listing 2 of 2 here]
IC50 (Aspergillus fumigatus [2]): 0.002 µg/mL (≈ 1.58 nM) | LC30 [3]: 370 µg/mL (≈ 292000 nM)

CCCCCCCCOc1ccc2cc(C(=O)N[C@@H]3C[C@@H](O)[C@@H](O)NC(=O)[C@@H]4[C@@H](O)[C@@H](C)CN4C(=O)[C@H]([C@H](O)CC(N)=O)NC(=O)[C@H]([C@H](O)[C@@H](O)c4ccc(O)c(OS(=O)(=O)[O-])c4)NC(=O)[C@@H]4C[C@@H](O)CN4C(=O)C([C@@H](C)O)NC3=O)ccc2c1.[Na+] (stereo not given in full)
MIC (Candida albicans [1]): 0.1 µg/mL | IC50 (Aspergillus fumigatus [2]): 0.003 µg/mL | LC30 [3]: > 10000 µg/mL | ED50 (Candida albicans [4]): 0.46 mg/kg | ED50 (Aspergillus fumigatus [5]): 0.79 mg/kg

CCCCCCOc1ccc2cc(C(=O)N[C@@H]3C[C@@H](O)[C@@H](O)NC(=O)[C@@H]4[C@@H](O)[C@@H](C)CN4C(=O)[C@H]([C@H](O)CC(N)=O)NC(=O)[C@H]([C@H](O)[C@@H](O)c4ccc(O)c(OS(=O)(=O)[O-])c4)NC(=O)[C@@H]4C[C@@H](O)CN4C(=O)C([C@@H](C)O)NC3=O)ccc2c1.[Na+] (stereo not given in full)
MIC (Candida albicans [1]): 0.78 µg/mL | IC50 (Aspergillus fumigatus [2]): 0.025 µg/mL | LC30 [3]: > 10000 µg/mL

CCCCCCCCCCOc1ccc2cc(C(=O)N[C@@H]3C[C@@H](O)[C@@H](O)NC(=O)[C@@H]4[C@@H](O)[C@@H](C)CN4C(=O)[C@H]([C@H](O)CC(N)=O)NC(=O)[C@H]([C@H](O)[C@@H](O)c4ccc(O)c(OS(=O)(=O)[O-])c4)NC(=O)[C@@H]4C[C@@H](O)CN4C(=O)C([C@@H](C)O)NC3=O)ccc2c1.[Na+] (stereo not given in full)
MIC (Candida albicans [1]): 0.2 µg/mL | IC50 (Aspergillus fumigatus [2]): 0.015 µg/mL | LC30 [3]: 750 µg/mL

CCCCCCCOc1ccc2cc(C(=O)N[C@@H]3C[C@@H](O)[C@@H](O)NC(=O)[C@@H]4[C@@H](O)[C@@H](C)CN4C(=O)[C@H]([C@H](O)CC(N)=O)NC(=O)[C@H]([C@H](O)[C@@H](O)c4ccc(O)c(OS(=O)(=O)[O-])c4)NC(=O)[C@@H]4C[C@@H](O)CN4C(=O)C([C@@H](C)O)NC3=O)ccc2c1.[Na+] (stereo not given in full)
MIC (Candida albicans [1]): 0.39 µg/mL | IC50 (Aspergillus fumigatus [2]): 0.004 µg/mL | LC30 [3]: > 10000 µg/mL

CCCCCCCCCCCCOc1ccc2cc(C(=O)N[C@@H]3C[C@@H](O)[C@@H](O)NC(=O)[C@@H]4[C@@H](O)[C@@H](C)CN4C(=O)[C@H]([C@H](O)CC(N)=O)NC(=O)[C@H]([C@H](O)[C@@H](O)c4ccc(O)c(OS(=O)(=O)[O-])c4)NC(=O)[C@@H]4C[C@@H](O)CN4C(=O)C([C@@H](C)O)NC3=O)ccc2c1.[Na+] (stereo not given in full)
MIC (Candida albicans [1]): 0.78 µg/mL | LC30 [3]: 410 µg/mL

CCCCCOc1ccc(-c2ccc(/C=C/C(=O)N[C@@H]3C[C@@H](O)[C@@H](O)NC(=O)[C@@H]4[C@@H](O)[C@@H](C)CN4C(=O)[C@H]([C@H](O)CC(N)=O)NC(=O)[C@H]([C@H](O)[C@@H](O)c4ccc(O)c(OS(=O)(=O)[O-])c4)NC(=O)[C@@H]4C[C@@H](O)CN4C(=O)C([C@@H](C)O)NC3=O)cc2)cc1.[Na+] (stereo not given in full)
MIC (Candida albicans [1]): 0.05 µg/mL | IC50 (Aspergillus fumigatus [2]): 0.002 µg/mL | LC30 [3]: 3950 µg/mL

CCCCCCCCOc1ccc(C(=O)N[C@H]2C[C@@H](O)[C@H](O)NC(=O)[C@@H]3[C@@H](O)[C@@H](C)CN3C(=O)[C@H]([C@H](O)CC(N)=O)NC(=O)[C@H]([C@H](O)[C@@H](O)c3ccc(O)c(OS(=O)(=O)[O-])c3)NC(=O)[C@@H]3C[C@@H](O)CN3C(=O)[C@H]([C@@H](C)O)NC2=O)cc1.[Na+] [FR-131535] ({Benzoyl(4-octyloxy)}-[Orn(4R-OH,5S-OH)]T[Hyp][hTyr(3S-OH,4S-OH,3'-OSO3H)][Gln(3R-OH)][Pro(3S-OH,4S-Me)]; lactam 1-C)
MIC (Candida albicans [1]): 0.78 µg/mL | IC50 (Aspergillus fumigatus [2]): 0.015 µg/mL | LC30 [3]: > 10000 µg/mL | ED50 (Candida albicans [4]): 3.71 mg/kg | ED50 (Aspergillus fumigatus [5]): 4.31 mg/kg

CCCCCCCCCCOc1ccc(C(=O)N[C@@H]2C[C@@H](O)[C@@H](O)NC(=O)[C@@H]3[C@@H](O)[C@@H](C)CN3C(=O)[C@H]([C@H](O)CC(N)=O)NC(=O)[C@H]([C@H](O)[C@@H](O)c3ccc(O)c(OS(=O)(=O)[O-])c3)NC(=O)[C@@H]3C[C@@H](O)CN3C(=O)C([C@@H](C)O)NC2=O)cc1.[Na+] (stereo not given in full)
MIC (Candida albicans [1]): 0.2 µg/mL | IC50 (Aspergillus fumigatus [2]): 0.005 µg/mL | LC30 [3]: 10000 µg/mL

CCCCCCCCOc1ccc(/C=C/C(=O)N[C@@H]2C[C@@H](O)[C@@H](O)NC(=O)[C@@H]3[C@@H](O)[C@@H](C)CN3C(=O)[C@H]([C@H](O)CC(N)=O)NC(=O)[C@H]([C@H](O)[C@@H](O)c3ccc(O)c(OS(=O)(=O)[O-])c3)NC(=O)[C@@H]3C[C@@H](O)CN3C(=O)C([C@@H](C)O)NC2=O)cc1.[Na+] (stereo not given in full)
MIC (Candida albicans [1]): 0.78 µg/mL | LC30 [3]: > 10000 µg/mL
